According to ChEMBL document CHEMBL4024717, “Anthranilamide-based 2-phenylcyclopropane-1-carboxamides, 1,1'-biphenyl-4-carboxamides and 1,1'-biphenyl-2-carboxamides: Synthesis biological evaluation and mechanism of action” (Eur J Med Chem, 2017):

Key:
K562 [1] = assay: Growth inhibition of human K562 cells at 10 uM after 24 hrs by MTT assay relative to control; assay type: functional; settings: K562, 24 h, read-out: GI
K562 [2] = assay: Cytotoxicity against human K562 cells after 48 hrs by MTT assay; assay type: functional, cell-based; settings: K562, 48 h

SMILES	inhibition of growth at 10 µM (K562 [1]) [%]	IC50 (K562 [2]) [µM]
NC(=O)c1cc(Cl)ccc1NC(=O)c1ccc(-c2ccccc2)cc1	45	–
COc1cc(NC(=O)[C@@H]2C[C@H]2c2ccccc2)c(C(N)=O)cc1OC	26.7	–
NC(=O)c1cc(I)ccc1NC(=O)c1ccc(-c2ccccc2)cc1	15	15
NC(=O)c1cc(Cl)ccc1NC(=O)c1ccccc1-c1ccccc1	47.3	–
COc1ccc(NC(=O)c2ccc(-c3ccccc3)cc2)c(C(N)=O)c1	29.2	–
NC(=O)c1ccccc1NC(=O)c1ccccc1-c1ccccc1	44.6	–
Cc1ccc(NC(=O)c2ccc(-c3ccccc3)cc2)c(C(N)=O)c1	39.7	–
COc1cc(NC(=O)c2ccc(-c3ccccc3)cc2)c(C(N)=O)cc1OC	48	–
COc1cc(NC(=O)c2ccccc2-c2ccccc2)c(C(N)=O)cc1OC	46	–
